Results as given in patent publication US20230190887A1, “TARGETING G3BP AGGREGATION TO PREVENT NEURODEGENERATION” (priority 2019, published 2023).

What was measured:
C9ORF72 iPS-MN axons = assay: OPP labeling of local protein synthesis in iPS-MN axons; type: cell-based, human; details: axonal-exclusive application of 20 μM peptide
Source text: Formation of G3BP1-positive RNP condensates is strongly associated with repressed RNA translation, see Sahoo, P. K. et al. A Ca^2+ dependent switch activates axonal casein kinase 2α translation and drives G3BP1 granule disassembly for axon regeneration. Curr. Biol. 30, 4882-4895.e6 (2020), and altered mRNA transport, see Liao, Y. C. et al. RNA granules hitchhike on lysosomes for long-distance transport, using Annexin All as a molecular tether. Cell 179, 147-164.e20 (2019), leading to reduced protein synthesis, see Sahoo, P. K. et al. Axonal G3BP1 stress granule protein limits axonal mRNA translation and nerve regeneration. Nat. Commun. 9, 1-14 (2018). […] By quantifying OPP puncta density within in vitro NMJs, we identified robust protein synthesis within control co-cultures, while protein synthesis in TDPΔNLS NMJs was severely impaired (FIG. 19 3k-l). […] Unpaired-t-test, two-sided ****p<0.0001. c Images and d-f quantification of NFH, pTDP-43 and G3BP1 and their colocalization in C9ORF72 iPS-MN axons either treated or not with G3BP1 peptide. Quantifications of G3BP1 particle density (d), G3BP1-pTDP-43 coloc-particle density (e) and G3BP1-pTDP-43 coloc-particle size (f) from C9ORF72 and control iPS-MN axons, either treated or not with G3BP1 peptide. […] One-way-ANOVA with Holm-Sidak correction. […], ****p<0.0001. i Images and j quantification of OPP puncta density in control or ΔNLS MN axons. […]

E18 midbrain neurons = assay: MPP+-induced neurite degeneration of midbrain neurons; type: cell-based, rat; details: DIV7 E18 midbrain neurons, 100 μM MPP+ 16-18 hours, with 10 μM peptide
Experimental: To test whether the triggering disassembly of stress granules would be protective in Parkinson's and Alzheimer's disease, the inventors employed 1-methyl-4-phenylpyridinium (MPP+)-induced and amyloid β (Aβ)-mediated neurotoxicity models. Rat embryonic day 18 (E18) midbrain neurons cultured for 7 days were treated for 16-18 hours with 100 μM MPP+, see FIGS. 1A and B, while E18 cortical neurons were treated with 1 μM Aβ oligomer, see FIGS. 2A-2B, with or without 10 μM G3BP1 190-208 or 168-189 peptide. As a control, the inventors used non-treated neurons.
FIG. 1: Cell permeable G3BP1 190-208 peptide rescues MPP+-induced degeneration of midbrain neurons. (A) Representative images for NF-labeled (white) DIV7 E18 midbrain neurons. DIV7 midbrain cultures were treated with 100 μM MPP+ (ii) or control (i) and […] 190-208 G3BP1 peptide (iv) or 168-189 control peptide (iii) [scale bar=100 μm]. (B) Quantification of neurite degeneration in midbrain neurons in control or 100 μM MPP+-treated neurons after addition of 190-208 G3BP1 or 168-189 control peptide. […] (N≥95 over 3 cultures; by one-way ANOVA with Tukey HSD post-hoc).

Substance: YGNKKNNNQNNN-VVEPEPEPEPEPEPEPVSE [G3BP1 190-208 peptide]
- OPP puncta density (axonal translation) (C9ORF72 iPS-MN axons): reversed
- neurite degeneration (E18 midbrain neurons; listed as 190-208 peptide): significant decrease in MPP+-induced degeneration
- neurite degeneration (E18 midbrain neurons; listed as G3BP1 190-208): prevented neurite degeneration
